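Tested at 5 concentrations; 48 h exposure; 96-well plates; endpoints linearly interpolated, else capped at highest concentration. GI50 is the concentration that inhibits growth by half.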 Active and inactive are the calls of the source. No stated cut-off is given here; in the data, active = GI50 up to about 1.1 µM and inactive = higher.

Common to all, as to test: NCI-60 cell line screen, 48 h
Assay [1] has as its system 786-0.
Assay [2] has as its system A549.
In assay [3] the test system is ACHN.
Assay [4] deals with HL-60.
Assay [5] has as its system HOP-92.
Assay [6] concerns Hs-578T.
For assay [7], the system named is K562.
Assay [8] relates to MOLT-4.
The test system of assay [9] is Malme-3M.
The test system of assay [10] is NCI-H226.
Assay [11] has as its system NCI-H460.
Assay [12] has as its system OVCAR-8.
Assay [13] relates to PC-3.
For assay [14], the system named is SF-539.
Assay [15] deals with SN12C.
For assay [16], the system named is SNB-19.
The test system of assay [17] is T47D.
The subject of assay [18] is TK-10.
Assay [19] deals with U-251.
The test system of assay [20] is UACC-62.

Consider `C1=Cc2ccccc2C1.C=C(C)c1ccccc1.[N-]=[N+]=Nc1ccccc1`, for which the GI50 in assay [1] was > 100 µM (inactive); in assay [2], > 100 µM (inactive); in assay [3] it was > 100 µM (inactive); in [4], 62.4 µM (inactive); in assay [5], 47.1 µM (inactive); in [6], 39.1 µM (inactive). Further, the GI50 was 46.9 µM (inactive) in assay [7]; 96.2 µM (inactive) in assay [8]; > 100 µM (inactive) in assay [9]; 52.1 µM (inactive) in [10]; 90.4 µM (inactive) in assay [11]; > 100 µM (inactive) in [12]. Moreover, the GI50 is > 100 µM (inactive) in assay [13]; > 100 µM (inactive) in assay [14]; > 100 µM (inactive) in [15]; > 100 µM (inactive) in [16]; 68.5 µM (inactive) in assay [17]; > 100 µM (inactive) in assay [18]. Also, the GI50 in assay [19] is 71.3 µM (inactive); in assay [20], 45.8 µM (inactive).

With `CN(C)c1ccc(/C=C/c2cc[n+](C)c3ccccc23)cc1`, the GI50 in [1] was 4.27 µM (inactive); in assay [2], 3.86 µM (inactive); in assay [3], 6.43 µM (inactive); in assay [4] it was 0.748 µM (active); in assay [5], 2.96 µM (inactive); in [6] it was 2.74 µM (inactive). The GI50 is 0.418 µM (active) in assay [7]; 3.4 µM (inactive) in assay [8]; 4.51 µM (inactive) in assay [9]; 2.53 µM (inactive) in assay [10]; 2.9 µM (inactive) in [11]; 1.53 µM (inactive) in [12]. For the same compound, the GI50 is 1.73 µM (inactive) in assay [13]; 5.56 µM (inactive) in assay [14]; 3.44 µM (inactive) in assay [15]; 2.34 µM (inactive) in [16]; 0.652 µM (active) in [17]; 3.71 µM (inactive) in assay [18]. The GI50 was 2.75 µM (inactive) in assay [19] and 3.13 µM (inactive) in assay [20].

As for `COC1CC(C)(NC(C)=O)C2OC(c3ccccc3)OCC2O1` (stereo not given), the GI50 in assay [1], in assay [2], in [3], in assay [4], in [5] and in [6] was > 100 µM (inactive) throughout. Also, the GI50 in assay [7], in assay [8], in [9], in [10], in [11] and in [12] was > 100 µM (inactive) each time. Besides, the GI50 in [13], in [14], in assay [15], in assay [16], in assay [17] and in assay [18] was > 100 µM (inactive) throughout. The GI50 in [19] and in assay [20] was > 100 µM (inactive) each time.

`Cc1ccc2c(=O)cc(-c3ccc(-c4ccccc4)s3)[nH]c2n1`: the GI50 in [1] is 16.1 µM (inactive); in assay [2], 58.6 µM (inactive); in assay [3], > 100 µM (inactive); in assay [4], > 23.6 µM (inactive); in [5] it was > 41.2 µM (inactive); in assay [6], > 46.7 µM (inactive). In addition, the GI50 in assay [7] is 11.9 µM (inactive); in assay [8], 4.18 µM (inactive); in [9], > 42.9 µM (inactive); in [10], 29.1 µM (inactive); in assay [11], > 59.7 µM (inactive); in assay [12], > 58.3 µM (inactive). For the same compound, the GI50 was 6.03 µM (inactive) in assay [13]; 13 µM (inactive) in assay [14]; 58.6 µM (inactive) in assay [15]; 70.1 µM (inactive) in [16]; > 76.7 µM (inactive) in assay [17]; > 48.3 µM (inactive) in [18]. The GI50 in assay [19] is 16.4 µM (inactive); in assay [20], 17 µM (inactive).

Consider `Cc1cc(-c2nc3ccc(F)cc3s2)ccc1NC(=O)C(N)CCCCN` (stereo not given), for which the GI50 in [1] was 3.21 µM (inactive); in assay [2] it was 2.64 µM (inactive); in assay [3] it was 12.7 µM (inactive); in assay [4], 2.9 µM (inactive); in assay [5] it was 8.2 µM (inactive); in assay [6], 5.12 µM (inactive). The GI50 in assay [7] is 3.45 µM (inactive); in assay [8], 2.34 µM (inactive); in assay [9], 18.2 µM (inactive); in [10] it was 2.44 µM (inactive); in assay [11], 1.82 µM (inactive); in assay [12], 5.97 µM (inactive). Further, the GI50 in assay [13] is 9.53 µM (inactive); in assay [14], 3.27 µM (inactive); in [15], 7.76 µM (inactive); in [16], 10.2 µM (inactive); in [17], 0.027 µM (active); in assay [18] it was 0.0731 µM (active). Besides, the GI50 in assay [19] is 2.11 µM (inactive); in assay [20] it was 10.8 µM (inactive).

For the compound `CC(C)Oc1cccc(N2C(NCCc3c[nH]c4ccccc34)=Nc3ccncc3S2(=O)=O)c1`, the GI50 was 2.09 µM (inactive) in assay [1]; 40.9 µM (inactive) in assay [2]; 35.5 µM (inactive) in assay [3]; 3.93 µM (inactive) in assay [4]; 8.45 µM (inactive) in assay [5]; 3.9 µM (inactive) in assay [6]. The GI50 in [7] was 3.82 µM (inactive); in assay [8], 3.94 µM (inactive); in assay [9], 32.4 µM (inactive); in assay [10], > 100 µM (inactive); in assay [11] it was 6.53 µM (inactive); in [12], 57.4 µM (inactive). The GI50 was 6.4 µM (inactive) in [13]; 33.7 µM (inactive) in assay [14]; > 100 µM (inactive) in [15]; > 100 µM (inactive) in assay [16]; 7.21 µM (inactive) in [17]; 19.2 µM (inactive) in assay [18]. Moreover, the GI50 is 17.9 µM (inactive) in assay [19] and 31 µM (inactive) in [20].

In the case of `CC1(C)CCCCCCCCCC(C)(CCCCCCCCCCCCO)C1=O` (stereo not given), the GI50 was 18.6 µM (inactive) in assay [1]; 16.1 µM (inactive) in assay [2]; 15 µM (inactive) in [3]; 15.7 µM (inactive) in [4]; 16.9 µM (inactive) in [5]; 19.7 µM (inactive) in assay [6]. Also, the GI50 was 20 µM (inactive) in assay [7]; 27.2 µM (inactive) in assay [8]; 16.4 µM (inactive) in assay [9]; 9.84 µM (inactive) in assay [10]; 18.3 µM (inactive) in assay [11]; 14.5 µM (inactive) in assay [12]. The GI50 was 17.4 µM (inactive) in assay [13]; 16.6 µM (inactive) in [14]; 17.4 µM (inactive) in [15]; 13 µM (inactive) in [16]; 16.8 µM (inactive) in assay [17]; 17.7 µM (inactive) in assay [18]. Further, the figures for the GI50 in assay [19] and in assay [20] were 17.8 µM (inactive) and 18.3 µM (inactive), respectively.

On to `COCn1cnc2c(=O)n(-c3ccc(C)cc3)c(=S)n(-c3ccc(C)cc3)c21`, for which the GI50 in assay [1] was > 100 µM (inactive); in assay [2], > 100 µM (inactive); in assay [3], > 100 µM (inactive); in [4] it was > 100 µM (inactive); in [5], 71.8 µM (inactive); in [6] it was > 100 µM (inactive). The GI50 in assay [7], in [8], in assay [9], in [10], in [11] and in assay [12] was > 100 µM (inactive) each time. In addition, the GI50 in [13], in assay [14], in [15], in assay [16], in assay [17] and in assay [18] was > 100 µM (inactive) throughout. The GI50 in [19] and in assay [20] was > 100 µM (inactive) in each case.

For the compound `O=Cc1ccc2c(c1)CC1(C2)Cc2ccc3c(c2C1)CCC3` (stereo not given), the GI50 in assay [1] is 14.4 µM (inactive); in assay [2], 37.8 µM (inactive); in assay [3], 32.1 µM (inactive); in assay [4], 3.75 µM (inactive); in [5], 17 µM (inactive); in assay [6], 7.41 µM (inactive). The GI50 in assay [7] was 6.34 µM (inactive); in assay [8], 6.41 µM (inactive); in [9], 6.22 µM (inactive); in assay [10] it was 16.3 µM (inactive); in [11], 17.2 µM (inactive); in [12], 13.1 µM (inactive). For the same compound, the GI50 in assay [13] is 5.51 µM (inactive); in [14], 9.02 µM (inactive); in assay [15], 8.45 µM (inactive); in assay [16], 7.08 µM (inactive); in [17], 18.2 µM (inactive); in assay [18], 16.6 µM (inactive). Further, the GI50 in assay [19] was 8.51 µM (inactive); in assay [20] it was 6.56 µM (inactive).

For `CCNC1=C(NC(=O)CC)C(=O)c2ccccc2C1=O`, the GI50 was > 100 µM (inactive) in assay [1]; > 100 µM (inactive) in assay [2]; > 100 µM (inactive) in assay [3]; 74.8 µM (inactive) in [4]; > 100 µM (inactive) in assay [5]; > 100 µM (inactive) in assay [6]. For the same compound, the GI50 in assay [7] is > 100 µM (inactive); in [8], > 100 µM (inactive); in assay [9], 22.9 µM (inactive); in [10] it was > 100 µM (inactive); in assay [11], > 100 µM (inactive); in assay [12], 79.1 µM (inactive). The GI50 was 42.6 µM (inactive) in [13]; > 100 µM (inactive) in assay [14]; 73.3 µM (inactive) in assay [15]; > 100 µM (inactive) in [16]; > 100 µM (inactive) in assay [17]; > 100 µM (inactive) in assay [18]. For the same compound, the GI50 in [19] is > 100 µM (inactive); in assay [20] it was 74.5 µM (inactive).

The values above are taken from ChEMBL document CHEMBL1201862, “PubChem BioAssay data set” (2004).
